Patent US7250521B2, “Method for production of Δ1-pyrrolines” (Bayer CropScience Aktiengesellschaft, priority 2001, dated 2007)

Assay: logP determination by HPLC on reverse-phase column (C 18), EEC directive 79/831 Annex V.A8
Type: physicochemical
Details: reverse-phase HPLC column (C 18), pH 2.3, acidic range, pH 2.3; 0.1% aqueous phosphoric acid/acetonitrile gradient; 43° C.; values marked a)
Method: In the acidic range, the determination is carried out at pH 2.3 using the mobile phases 0.1% aqueous phosphoric acid and acetonitrile; linear gradient from 10% acetonitrile to 90% acetonitrile.
In the neutral range, the determination is carried out at pH 7.5 using the mobile phases 0.01 molar aqueous phosphate buffer solution and acetonitrile; linear gradient from 10% acetonitrile to 90% acetonitrile.

Compound | chromatographic logP
Cc1ccc(C2CCC(=O)N2C(=O)OC(C)(C)C)cc1Cl (centres unmarked) [III-14] | 3.3
CSc1ccc(C2CCC(=O)N2C(=O)OC(C)(C)C)cc1 (centres unmarked) [III-15] | 2.84
CC(C)(C)OC(=O)N1C(=O)CCC1c1ccc(F)cc1F (centres unmarked) [III-16] | 2.69
Cc1ccc(C2CCC(=O)N2C(=O)OC(C)(C)C)c(C)c1 (centres unmarked) [III-17] | 3.2
CC(C)(C)OC(=O)N1C(=O)CCC1c1ccc(C2CCCCC2)cc1 (centres unmarked) [III-18] | 4.71
CC(C)(C)OC(=O)N1C(=O)CCC1c1ccc(CCc2ccccc2)cc1 (centres unmarked) [III-19] | 4.11
Cc1ccc(C2CCC(=O)N2C(=O)OC(C)(C)C)cc1 (centres unmarked) [III-20] | 2.9
CC(C)(C)OC(=O)N1C(=O)CCC1c1ccc(F)cc1 (centres unmarked) [III-21] | 2.57
CC(C)Oc1ccc(-c2ccc(C3CCC(=O)N3C(=O)OC(C)(C)C)cc2)cc1 (centres unmarked) [III-23] | 4.17
CC(C)(C)OC(=O)N1C(=O)CCC1c1ccc(-c2ccc(OCc3ccc(Cl)cc3)cc2)cc1 (centres unmarked) [III-24] | 4.93
CC(C)(C)OC(=O)N1C(=O)CCC1c1ccc(-c2ccc(OCc3ccc(OC(F)(F)F)cc3)cc2)cc1 (centres unmarked) [III-25] | 5.03
CC(C)(C)OC(=O)N1C(=O)CCC1c1ccc(-c2ccc(Br)cc2)cc1 (centres unmarked) [III-27] | 4.26
CCOc1cc(C(C)(C)C)ccc1C1CCC(=O)N1C(=O)OC(C)(C)C (centres unmarked) [III-28] | 4.4

Same assay, conditions: reverse-phase HPLC column (C 18), pH 7.5, neutral range, pH 7.5; 0.01 molar aqueous phosphate buffer/acetonitrile gradient; 43° C.; values marked b)

Compound | chromatographic logP
CSc1ccc(C2CCC(=O)N2C(=O)OC(C)(C)C)cc1 (centres unmarked) [III-15] | 2.83
